Reference: US20150018268A1, “MULTIVALENT SYNTHETIC COMPOUNDS AS ANTIBIOTIC TREATMENT” (CENTRE NATIONAL DE LA RECHERCHE SCIENTIFIQUE (CNRS), priority 2010, published 2015)
Square brackets hold non-standard residues; d marks the D form. Side chains are listed from the residue outwards. Peptide text beside a SMILES is read from it. * marks the point of attachment. X1 = NCCCCC(N)CN1CCC[C@H]1C(=O)*; Ahx = NCCCCCC(=O)O

Key:
Half-life in human serum = format: in vitro ADME; details: human serum at 37° C.
Excerpt: (§1) The term “standard peptide bond” means an amide bond of formula (—CONH—) which is normally present between 2 amino acids in a natural protein. Such a bond is sensitive to the action of proteases. The term “modified peptide bonds ψ” means a chemical bond between 2 amino acids of chemical formula distinct from the standard peptide bond of formula (—CONH—). […] The term “protease”, also known as “peptidase” or “proteolytic enzyme”, means any enzyme which cleaves the standard peptide bonds in proteins. This process is known as proteolytic cleavage. This involves the use of a water molecule which is what leads to proteases being classified as hydrolases. The proteases namely include proteases known as N-peptidases which carry out the cleavage of the N-terminal end of proteins. These proteases are particularly inconvenient in terms of the in vivo stability of peptides without modified peptide bonds.

[1] = Half-life in foetal calf serum; format: in vitro ADME; details: bovine; foetal calf serum at 37° C.
Excerpt: as §1

N=C(N)NCCC[C@H](NC(=O)[C@@H]1CCCN1CC(N)CCCCN)C(=O)NCCCC[C@H](NC(=O)[C@H](CCCCN)NC(=O)[C@H](CCCCNC(=O)[C@H](CCCNC(=N)N)NC(=O)[C@@H]1CCCN1CC(N)CCCCN)NC(=O)[C@H](CCCNC(=N)N)NC(=O)[C@@H]1CCCN1CC(N)CCCCN)C(=O)NCC(=O)N1CCC[C@H]1C(=O)N[C@@H](CCCCNC(=O)[C@H](CCCNC(=N)N)NC(=O)[C@@H]1CCCN1CC(N)CCCCN)C(=O)N[C@@H](CCC(=O)O)C(=O)N[C@@H](CCCCNC(=O)[C@H](CCCNC(=N)N)NC(=O)[C@@H]1CCCN1CC(N)CCCCN)C(=O)NCCCCCC(N)=O (some centres unmarked) [HB19, 5[Kψ(CH2N)PR]-TASP] (X1-RK([Arg-X1])KK([Arg-X1])GPK([Arg-X1])EK([Arg-X1])[Ahx]-NH2)
half-life (Half-life in human serum): > 24 h | half-life [1]: > 24 h
